Results taken from the supplement of paper PMC10307832.

Key:
Test in all cases: relative viability (nuclei count vs DMSO), 5 days (fraction); higher = more cells survive
201T = tested on: 201T
Summary of the method: (§1)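 Cells from lung cancer lines were seeded into 1536-well plates and, one day later, dosed by pin tool. Treatments were either a single drug or a fixed dose of an anchor drug with five library-drug doses (not always all listed) in √10 steps. After 5 days, nuclei were stained in a one-step fixation (final 0.05% Triton X-100, 1% formaldehyde, 1 ug/ml Hoechst) and counted on 4× images, and relative viability is the treated-to-vehicle nuclei ratio, as the median of duplicate plates.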

ABC-1 = tested on: ABC-1
Summary of the method: as §1

BEN = tested on: BEN
Summary of the method: as §1

CAL-12T = tested on: CAL-12T
Summary of the method: as §1

COR-L 105 = tested on: COR-L 105
Summary of the method: as §1

EKVX = tested on: EKVX
Summary of the method: as §1

EMC-BAC-2 = tested on: EMC-BAC-2
Summary of the method: as §1

HCC-15 = tested on: HCC-15
Summary of the method: as §1

HCC-44 = tested on: HCC-44
Summary of the method: as §1

LK-2 = tested on: LK-2
Summary of the method: as §1

LU99A = tested on: LU99A
Summary of the method: as §1

NCI-H1563 = tested on: NCI-H1563
Summary of the method: as §1

NCI-H1651 = tested on: NCI-H1651
Summary of the method: as §1

NCI-H2023 = tested on: NCI-H2023
Summary of the method: as §1

NCI-H322M = tested on: NCI-H322M
Summary of the method: as §1

NCI-H358 = tested on: NCI-H358
Summary of the method: as §1

NCI-H460 = tested on: NCI-H460
Summary of the method: as §1

NCI-H520 = tested on: NCI-H520
Summary of the method: as §1

NCI-H727 = tested on: NCI-H727
Summary of the method: as §1

NCI-H838 = tested on: NCI-H838
Summary of the method: as §1

PC-3 [JPC-3] = tested on: PC-3 [JPC-3]
Summary of the method: as §1

CN1CCN(CCOc2cc(OC3CCOCC3)c3c(Nc4c(Cl)ccc5c4OCO5)ncnc3c2)CC1 [Saracatinib] + CS(=O)(=O)N1CCN(Cc2cc3nc(-c4cccc5[nH]ncc45)nc(N4CCOCC4)c3s2)CC1 [Pictilisib] (partner 1 µM)
relative viability (201T; first compound 0.02 µM): 0.702 | relative viability (201T; first compound 0.2 µM): 0.627 | relative viability (201T; first compound 0.6325 µM): 0.603 | relative viability (201T; first compound 2 µM): 0.554 | relative viability (ABC-1; first compound 0.02 µM): 0.695 | relative viability (ABC-1; first compound 0.2 µM): 0.938 | relative viability (ABC-1; first compound 0.6325 µM): 0.85 | relative viability (ABC-1; first compound 2 µM): 0.822 | relative viability (BEN; first compound 0.02 µM): 0.57 | relative viability (BEN; first compound 0.2 µM): 0.56 | relative viability (BEN; first compound 0.6325 µM): 0.573 | relative viability (BEN; first compound 2 µM): 0.427 | relative viability (CAL-12T; first compound 0.02 µM): 0.428 | relative viability (CAL-12T; first compound 0.2 µM): 0.399 | relative viability (CAL-12T; first compound 0.6325 µM): 0.491 | relative viability (CAL-12T; first compound 2 µM): 0.255 | relative viability (COR-L 105; first compound 0.02 µM): 0.445 | relative viability (COR-L 105; first compound 0.2 µM): 0.331 | relative viability (COR-L 105; first compound 0.6325 µM): 0.361 | relative viability (COR-L 105; first compound 2 µM): 0.244 | relative viability (EKVX; first compound 0.02 µM): 0.417 | relative viability (EKVX; first compound 0.2 µM): 0.409 | relative viability (EKVX; first compound 0.6325 µM): 0.366 | relative viability (EKVX; first compound 2 µM): 0.175 | relative viability (EMC-BAC-2; first compound 0.02 µM): 0.546 | relative viability (EMC-BAC-2; first compound 0.2 µM): 0.507 | relative viability (EMC-BAC-2; first compound 0.6325 µM): 0.497 | relative viability (EMC-BAC-2; first compound 2 µM): 0.34 | relative viability (HCC-15; first compound 0.02 µM): 0.797 | relative viability (HCC-15; first compound 0.2 µM): 0.585 | relative viability (HCC-15; first compound 0.6325 µM): 0.684 | relative viability (HCC-15; first compound 2 µM): 0.539 | relative viability (HCC-44; first compound 0.02 µM): 0.527 | relative viability (HCC-44; first compound 0.2 µM): 0.598 | relative viability (HCC-44; first compound 0.6325 µM): 0.854 | relative viability (HCC-44; first compound 2 µM): 0.442 | relative viability (LK-2; first compound 0.02 µM): 0.563 | relative viability (LK-2; first compound 0.2 µM): 0.316 | relative viability (LK-2; first compound 0.6325 µM): 0.413 | relative viability (LK-2; first compound 2 µM): 0.302 | relative viability (LU99A; first compound 0.02 µM): 0.334 | relative viability (LU99A; first compound 0.2 µM): 0.259 | relative viability (LU99A; first compound 0.6325 µM): 0.309 | relative viability (LU99A; first compound 2 µM): 0.299 | relative viability (NCI-H1563; first compound 0.02 µM): 0.618 | relative viability (NCI-H1563; first compound 0.2 µM): 0.609 | relative viability (NCI-H1563; first compound 0.6325 µM): 0.63 | relative viability (NCI-H1563; first compound 2 µM): 0.606 | relative viability (NCI-H1651; first compound 0.02 µM): 0.507 | relative viability (NCI-H1651; first compound 0.2 µM): 0.499 | relative viability (NCI-H1651; first compound 0.6325 µM): 0.563 | relative viability (NCI-H1651; first compound 2 µM): 0.5 | relative viability (NCI-H2023; first compound 0.02 µM): 0.267 | relative viability (NCI-H2023; first compound 0.2 µM): 0.317 | relative viability (NCI-H2023; first compound 0.6325 µM): 0.242 | relative viability (NCI-H2023; first compound 2 µM): 0.197 | relative viability (NCI-H322M; first compound 0.02 µM): 0.549 | relative viability (NCI-H322M; first compound 0.2 µM): 0.474 | relative viability (NCI-H322M; first compound 0.6325 µM): 0.496 | relative viability (NCI-H322M; first compound 2 µM): 0.296 | relative viability (NCI-H358; first compound 0.02 µM): 0.348 | relative viability (NCI-H358; first compound 0.2 µM): 0.226 | relative viability (NCI-H358; first compound 0.6325 µM): 0.284 | relative viability (NCI-H358; first compound 2 µM): 0.257 | relative viability (NCI-H460; first compound 0.02 µM): 0.367 | relative viability (NCI-H460; first compound 0.6325 µM): 0.242 | relative viability (NCI-H460; first compound 2 µM): 0.286 | relative viability (NCI-H520; first compound 0.02 µM): 0.321 | relative viability (NCI-H520; first compound 0.2 µM): 0.263 | relative viability (NCI-H520; first compound 0.6325 µM): 0.273 | relative viability (NCI-H520; first compound 2 µM): 0.228 | relative viability (NCI-H727; first compound 0.02 µM): 0.295 | relative viability (NCI-H727; first compound 0.2 µM): 0.423 | relative viability (NCI-H727; first compound 0.6325 µM): 0.354 | relative viability (NCI-H727; first compound 2 µM): 0.407 | relative viability (NCI-H838; first compound 0.02 µM): 0.351 | relative viability (NCI-H838; first compound 0.2 µM): 0.447 | relative viability (NCI-H838; first compound 0.6325 µM): 0.344 | relative viability (NCI-H838; first compound 2 µM): 0.326 | relative viability (PC-3 [JPC-3]; first compound 0.02 µM): 0.782 | relative viability (PC-3 [JPC-3]; first compound 0.2 µM): 0.613 | relative viability (PC-3 [JPC-3]; first compound 0.6325 µM): 0.475 | relative viability (PC-3 [JPC-3]; first compound 2 µM): 0.395
